# Biological target: QPCTL (Homo sapiens (Human), UniProt Q9NXS2)
# Assay: QPCTL inhibition, SensoLyte Green Glutaminyl Cyclase Activity Assay
# Assay type: biochemical
# Settings: 0.8 nM 2x enzyme solution, 45 min at 37° C., 50 mM Tris pH 8.0, 1% DMSO
# Description: Preparation of working solution: 2×Glutaminyl Cyclase substrate was diluted in assay buffer to […]. 2×enzyme solution and QPCTL was diluted in assay buffer to 0.8 nM. Glutaminyl Cyclase Developer was diluted in assay buffer to 1×(containing 10 mM 1-Benzyl-Imidazole). Serial dilution of test compounds was performed in DMSO. The final DMSO concentration in 100 μl reaction was 1%. The assay buffer was 50 mM Tris, pH 8.0, 0.01% BSA.
# Procedure: 50 μL of 2×Glutaminyl Cyclase substrate solution was added into the assay plate followed by 50 μL of 2×enzyme solution. The plate was centrifuged for 1 min at 1000 rmp. Next the plate was incubated for 45 minutes at 37° C. This was followed by the additional of 50 μL of the prepared Glutaminyl Cyclase developer and incubated for additional 30 min at 37° C. Results were read on SpectraMax Paradigm detecting with emission at Ex/Em=490 nm/520 nm.
# A Z′ value was calculated for each assay plate. The Z′ value must be >0.5 or the plate was disqualified. […] Results were calculated using GraphPad Prism 7 software is used for IC50 determination.
# QPCTL, sequence (Q9NXS2 whole entry, species assumed): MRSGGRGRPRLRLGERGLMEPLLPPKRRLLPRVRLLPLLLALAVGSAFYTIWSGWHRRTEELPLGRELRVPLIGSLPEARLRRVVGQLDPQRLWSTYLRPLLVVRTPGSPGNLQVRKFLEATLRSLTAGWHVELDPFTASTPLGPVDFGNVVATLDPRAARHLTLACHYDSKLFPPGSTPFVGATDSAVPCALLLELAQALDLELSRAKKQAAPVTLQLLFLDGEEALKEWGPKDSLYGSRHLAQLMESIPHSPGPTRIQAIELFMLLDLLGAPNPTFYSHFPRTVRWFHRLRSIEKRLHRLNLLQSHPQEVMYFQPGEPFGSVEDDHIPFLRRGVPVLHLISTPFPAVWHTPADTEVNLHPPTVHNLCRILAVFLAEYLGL
row,IC50 [nM],SMILES
1,< 2,"Cc1ccc(-c2cc(F)c([C@H]3[C@@H](C4CC4)C(=O)N3c3ccc4[nH]cnc4c3)c(F)c2)nn1 (single isomer, unassigned) [Compound 65B]"
2,25 to 1000,"Cc1cc(-c2cnn(C(F)(F)F)c2)ncc1[C@@H]1[C@H](C2CC2)C(=O)N1c1ccc2[nH]cnc2c1 (single isomer, unassigned) [Compound 66A]"
3,< 2,"Cc1cc(-c2cnn(C(F)(F)F)c2)ncc1[C@H]1[C@@H](C2CC2)C(=O)N1c1ccc2[nH]cnc2c1 (single isomer, unassigned) [Compound 66B]"
4,25 to 1000,"Cc1cc(-c2ccc(C(F)(F)F)nn2)ccc1[C@@H]1[C@H](C2CC2)C(=O)N1c1ccc2[nH]cnc2c1 (single isomer, unassigned) [Compound 67A]"
5,< 2,"Cc1cc(-c2ccc(C(F)(F)F)nn2)ccc1[C@H]1[C@@H](C2CC2)C(=O)N1c1ccc2[nH]cnc2c1 (single isomer, unassigned) [Compound 67B]"
6,25 to 1000,"Cc1nc(-c2cnn(C(F)(F)F)c2)ccc1[C@@H]1[C@H](C2CC2)C(=O)N1c1ccc2[nH]cnc2c1 (single isomer, unassigned) [Compound 68A]"
7,< 2,"Cc1nc(-c2cnn(C(F)(F)F)c2)ccc1[C@H]1[C@@H](C2CC2)C(=O)N1c1ccc2[nH]cnc2c1 (single isomer, unassigned) [Compound 68B]"
8,25 to 1000,"O=C1[C@@H](C2CC2)[C@@H](c2c(F)cc(C3CC3)cc2F)N1c1ccc2[nH]cnc2c1 (single isomer, unassigned) [Compound 69A]"
9,< 2,"O=C1[C@H](C2CC2)[C@H](c2c(F)cc(C3CC3)cc2F)N1c1ccc2[nH]cnc2c1 (single isomer, unassigned) [Compound 69B]"
10,25 to 1000,"Cc1nc(-c2ccc(C(F)(F)F)nn2)ccc1[C@@H]1[C@H](C2CC2)C(=O)N1c1ccc2[nH]cnc2c1 (single isomer, unassigned) [Compound 70A]"
11,< 2,"Cc1nc(-c2ccc(C(F)(F)F)nn2)ccc1[C@H]1[C@@H](C2CC2)C(=O)N1c1ccc2[nH]cnc2c1 (single isomer, unassigned) [Compound 70B]"
12,25 to 1000,"Cc1ccc(-c2ccc([C@@H]3[C@H](C4CC4)C(=O)N3c3ccc4[nH]cnc4c3)c(C)n2)nn1 (single isomer, unassigned) [Compound 71A]"
13,< 2,"Cc1ccc(-c2ccc([C@H]3[C@@H](C4CC4)C(=O)N3c3ccc4[nH]cnc4c3)c(C)n2)nn1 (single isomer, unassigned) [Compound 71B]"
14,> 1000,"Cc1nc(-n2cnc(C(F)(F)F)c2)ccc1[C@@H]1[C@H](C2CC2)C(=O)N1c1ccc2[nH]cnc2c1 (single isomer, unassigned) [Compound 72A]"
15,< 2,"Cc1nc(-n2cnc(C(F)(F)F)c2)ccc1[C@H]1[C@@H](C2CC2)C(=O)N1c1ccc2[nH]cnc2c1 (single isomer, unassigned) [Compound 72B]"
16,25 to 1000,"Cc1cc(-n2cnc(C(F)(F)F)c2)ncc1[C@@H]1[C@H](C2CC2)C(=O)N1c1ccc2[nH]cnc2c1 (single isomer, unassigned) [Compound 73A]"
17,< 2,"Cc1cc(-n2cnc(C(F)(F)F)c2)ncc1[C@H]1[C@@H](C2CC2)C(=O)N1c1ccc2[nH]cnc2c1 (single isomer, unassigned) [Compound 73B]"
18,25 to 1000,"Cc1cc(-n2cnc(C(F)(F)F)c2)ccc1[C@@H]1[C@H](C2CC2)C(=O)N1c1ccc2[nH]cnc2c1 (single isomer, unassigned) [Compound 74A]"
19,< 2,"Cc1cc(-n2cnc(C(F)(F)F)c2)ccc1[C@H]1[C@@H](C2CC2)C(=O)N1c1ccc2[nH]cnc2c1 (single isomer, unassigned) [Compound 74B]"
20,25 to 1000,"O=C1[C@@H](C2CC2)[C@@H](c2ccc(-c3cnn(C(F)(F)F)c3)cc2Cl)N1c1ccc2[nH]cnc2c1 (single isomer, unassigned) [Compound 75A]"
21,< 2,"O=C1[C@H](C2CC2)[C@H](c2ccc(-c3cnn(C(F)(F)F)c3)cc2Cl)N1c1ccc2[nH]cnc2c1 (single isomer, unassigned) [Compound 75B]"
22,< 2,"O=C1[C@@H](C2CC2)[C@@H](c2ccc(-c3cnn(C(F)(F)F)c3)cc2C(F)(F)F)N1c1ccc2[nH]cnc2c1 (single isomer, unassigned) [Compound 76A]"
23,> 1000,"O=C1[C@H](C2CC2)[C@H](c2ccc(-c3cnn(C(F)(F)F)c3)cc2C(F)(F)F)N1c1ccc2[nH]cnc2c1 (single isomer, unassigned) [Compound 76B]"
24,25 to 1000,O=C1[C@@H](C2CC2)[C@@H](c2c(F)cc(-c3ccc(C(F)(F)F)nn3)cc2F)N1c1ccc2[nH]cnc2c1 [Compound 52A]
25,> 1000,O=C1[C@@H](C2CC2)[C@@H](c2c(F)cc(-c3cnccn3)cc2F)N1c1ccc2[nH]cnc2c1 [Compound 53A]
